Marks after values point to notes of the source that are not given here.
Experiments:
Format in all cases: in vivo
[1] = tested on: Puccinia recondite f. sp. tritici (the causal agent of wheat leaf rust); experiment: Test A: wheat leaf rust, preventive spray on wheat seedlings, visual disease rating; conditions: for Test A rating (100 = 100% disease control, 0 = no disease control relative to the controls): wheat leaf rust, preventive spray on wheat seedlings; for Test A rating (% disease control, wheat leaf rust): 100 = 100% disease control
In short: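 Wheat seedlings were sprayed to run-off with compound suspended in acetone/water containing 250 ppm Trem 014 (200 ppm ≈ 800 g/ha; some at 40 ppm). Puccinia recondite spores were inoculated the next day. Plants were held 24 h saturated at 20° C, then 7 days at 20° C, and disease control was rated visually on a 0–100 scale against controls.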

[2] = tested on: Blumeria graminis f. sp. tritici (also known as Erysiphe graminis f. sp. tritici, the causal agent of wheat powdery mildew); experiment: Test D: wheat powdery mildew, preventive spray on wheat seedlings, visual disease rating; conditions: for Test D rating (100 = 100% disease control, 0 = no disease control relative to the controls): wheat powdery mildew, preventive spray on wheat seedlings; for Test D rating (% disease control, wheat powdery mildew): 100 = 100% disease control
In short: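 Compound suspended in acetone/water (50/50) with 250 ppm Trem 014 and sprayed to run-off on wheat seedlings (200 ppm ≈ 800 g/ha), then inoculated next day with spore dust. Disease rated visually after 8 days at 20 °C as % control relative to untreated plants (0-100).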

[3] = tested on: Botrytis cinerea (the causal agent of tomato Botrytis); experiment: Test C: tomato Botrytis, preventive spray on tomato seedlings, visual disease rating; conditions: for Test C rating (100 = 100% disease control, 0 = no disease control relative to the controls): tomato Botrytis, preventive spray on tomato seedlings; for Test C rating (% disease control, tomato Botrytis): 100 = 100% disease control
In short: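 Test suspension (acetone/water with 250 ppm Trem 014; 200 ppm equivalent to 800 g/ha) sprayed to run-off on tomato seedlings; B. cinerea spores inoculated next day. After 48 h saturated humidity at 20° C then 3 days at 24° C, disease rated visually as % control relative to untreated controls (0–100).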

[4] = tested on: Septoria tritici (the causal agent of wheat leaf blotch); experiment: Test B: wheat leaf blotch, preventive spray on wheat seedlings, visual disease rating; conditions: for Test B rating (100 = 100% disease control, 0 = no disease control relative to the controls): wheat leaf blotch, preventive spray on wheat seedlings; for Test B rating (% disease control, wheat leaf blotch): 100 = 100% disease control
In short: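 Wheat seedlings sprayed to run-off with compound suspension (acetone/water with 250 ppm Trem 014; 200 ppm ≈ 800 g/ha, some at 40 ppm), inoculated next day with Septoria tritici spores. 48 h saturated humidity at 24 °C, then 19 days at 20 °C; visual rating, 100 = full control.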

[5] = asterisk: 40 ppm test suspension
[6] = asterisk: 40 ppm test suspension, 0 = no control
[7] = no asterisk (standard test suspension concentration, not 40 ppm)
[8] = no asterisk: standard test suspension concentration, 0 = no control relative to controls

| Structure (SMILES) | Test A rating (100 = 100% disease control, 0 = no disease control relative to the controls) [1, 5] | Test D rating (100 = 100% disease control, 0 = no disease control relative to the controls) [2, 5] | Test C rating (100 = 100% disease control, 0 = no disease control relative to the controls) [3, 5] | Test B rating (100 = 100% disease control, 0 = no disease control relative to the controls) [4, 5] | Test A rating (100 = 100% disease control, 0 = no disease control relative to the controls) [1, 7] [%] | Test D rating (100 = 100% disease control, 0 = no disease control relative to the controls) [2, 7] [%] | Test C rating (100 = 100% disease control, 0 = no disease control relative to the controls) [3, 7] [%] | Test B rating (100 = 100% disease control, 0 = no disease control relative to the controls) [4, 7] [%] | other results |
| --- | --- | --- | --- | --- | --- | --- | --- | --- | --- |
| Cc1nc(Cl)c(C(O)c2ccc(F)cc2Cl)n1-c1c(F)cc(F)cc1Br (centres unmarked) [compound 137] | 100* % | 87* % | 100* % | 100* % | – | – | – | – | – |
| Cc1nc(Br)c(C(O)c2ccc(F)cc2Br)n1-c1c(F)cccc1F (centres unmarked) [compound 384] | – | – | – | – | – | – | – | – | Test A rating (% disease control, wheat leaf rust) [1, 6]: 100* %; Test D rating (% disease control, wheat powdery mildew) [2, 6]: 72* %; Test C rating (% disease control, tomato Botrytis) [3, 6]: 65* %; Test B rating (% disease control, wheat leaf blotch) [4, 6]: 100* % |
| COc1ccc(C(O)c2c(C)nc(Cl)n2-c2c(F)cccc2F)c(C)c1 (racemic) [compound 220] | 100* % | 97* % | 100* % | 100* % | – | – | – | – | – |
| Cc1ncc(C(O)c2ccc(F)cc2)n1-c1c(F)cccc1F (centres unmarked) [compound 132] | – | – | – | – | 99 | 0 | 41 | 100 | – |
| OC(c1ccc(F)cc1Cl)c1c(Cl)nc(Cl)n1-c1c(F)cc(F)cc1Cl (centres unmarked) [compound 42] | – | – | – | – | 100 | 100 | 100 | 100 | – |
| Cc1nc(Cl)c(C(O)c2ccc(F)cc2Br)n1-c1c(F)cccc1F (centres unmarked) [compound 383] | – | – | – | – | – | – | – | – | Test A rating (% disease control, wheat leaf rust) [1, 6]: 100* %; Test D rating (% disease control, wheat powdery mildew) [2, 6]: 92* %; Test C rating (% disease control, tomato Botrytis) [3, 6]: 99* %; Test B rating (% disease control, wheat leaf blotch) [4, 6]: 100* % |
| Cc1ncc(C(O)c2c(F)cc(Cl)cc2F)n1-c1ccc(F)cc1Cl (centres unmarked) [compound 359] | – | – | – | – | 68 | 0 | 0 | 0 | – |
| COc1ccc(C(O)c2c(Cl)nc(Br)n2-c2c(F)cccc2F)c(Cl)c1 (racemic) [compound 237] | 100* % | 98* % | 100* % | 100* % | – | – | – | – | – |
| Cc1cc(F)ccc1C(O)c1cnc(C)n1-c1ccc(F)cc1F (centres unmarked) [compound 415] | – | – | – | – | – | – | – | – | Test A rating (% disease control, wheat leaf rust) [1, 8]: 74%; Test D rating (% disease control, wheat powdery mildew) [2, 8]: 0%; Test C rating (% disease control, tomato Botrytis) [3, 8]: 0%; Test B rating (% disease control, wheat leaf blotch) [4, 8]: 18% |
| Cc1nc(C)n(-c2c(F)cc(F)cc2Cl)c1C(O)c1ccc(F)cc1F (racemic) [compound 245] | 100* % | 84* % | 91* % | 100* % | – | – | – | – | – |
| Cc1cc(F)ccc1C(O)c1c(Cl)nc(Cl)n1-c1ccc(F)cc1Cl (single isomer, unassigned) [compound 50] | – | – | – | – | 100 | 90 | 100 | 100 | – |
